Measured values taken from patent US20050154035A1, “Methods of using zonisamide as an adjunctive therapy for partial seizures” (Eisai Co., Ltd., priority 2004, published 2005).

Tests used:
rat hippocampal slices = details: 10-30 μg/mL; cited from earlier work
T-type Ca^2+ currents = details: in vitro; cited from earlier work
[1] = system: dopaminergic and serotonergic neurotransmission; details: in vivo microdialysis; cited from earlier work
[2] = system: cultured mouse spinal cord neurons; details: 10-30 μg/mL, cited from earlier work
[3] = in vivo; cited from earlier work
[4] = Pharmacovigilance review of rhabdomyolysis / CPK elevation in zonisamide-treated patients (U.S. and Japan); details: human, in vivo
Excerpt: The pharmacovigilance data that were collected, reviewed and analyzed provided the following information in respect of the incidence of rhabdomyolysis/CPK elevation in the zonisamide-treated patient population. To date, a total of 10 cases fulfill the criteria of potential rhabdomyolysis cases. These 10 cases were reviewed in detail for evaluation of possible safety signals. All 10 cases fulfill serious criteria. Of these 10 cases, seven (7) cases were reported as rhabdomyolysis and three (3) cases were reported as CPK increase.
Of the seven (7) rhabdomyolysis cases, six (6) are verbatim cases from Dainippon and one (1) originates in the U.S. Of the seven (7) cases, three (3) were pediatric cases and four (4) were adult cases.
Of the seven (7) rhabdomyolysis cases, two (2) cases have strong confounding factors, but the possibility of zonisamide involvement cannot be completely excluded. Two (2) cases have moderate confounding factors, and zonisamide involvement may be possible.
Of the three (3) cases of CPK increase, one (1) is a verbatim report from Dainippon, and two (2) originated from the U.S. Of the three (3) cases, two are pediatric patients and one is an adult. Of these three (3) cases, two (2) recovered and the outcome of the third is unknown.
Of the three (3) cases of CPK increase, one (1) case has strong confounding factors, but the possibility of zonisamide involvement cannot be completely excluded. One (1) case has weak confounding factors, and zonisamide involvement may be possible.
Estimates of zonisamide exposure, based upon retail and mail order prescriptions, indicate that the number of unique patients taking zonisamide capsules in the U.S. is about 37,276 (total prescriptions per year/average number of prescriptions per patient per year less a calculated percentage decrease based on estimated annual dropouts) in the time between approval in 2000 and December 2002. Hospital patient data for that period, however, is not available and is not reflected in the estimates. Estimates of patient exposure for Japan indicate that the number of unique patients taking zonisamide is about 1,185,177 for time beginning with the approval in Japan through December 2002. Japanese data includes prescription and hospital patient data. Exposure from clinical trials are not included in the U.S. or Japanese exposure estimates. Based on these statistics, the estimated number of patients exposed to zonisamide in the U.S. and Japan is 1,222,453 unique patients. This is a rather conservative estimate, assuring that the number of patients actually exposed to zonisamide is unlikely to be higher than the estimate provided. Similarly, the incidences of rhabdomyolysis estimated herein are unlikely to be higher than calculated. […]

[5] = system: GABA/benzodiazepine receptor ionophore complex; details: in vitro, cited from earlier work

SMILES: NS(=O)(=O)Cc1noc2ccccc12 [zonisamide, 1,2-benzisoxazole-3-methanesulfonamide]
- effect on neuronal or glial uptake of [3H]-GABA (rat hippocampal slices): without affecting
- effect on voltage-dependent, transient inward currents (T-type Ca2+ currents) (T-type Ca^2+ currents): reduces voltage-dependent, transient inward currents
- effect on dopaminergic and serotonergic neurotransmission [1]: facilitates both dopaminergic and serotonergic neurotransmission
- effect on synaptically-driven electrical activity [2]: suppresses synaptically-driven electrical activity
- effect on postsynaptic GABA or glutamate responses ([2]; cultured mouse spinal cord neurons): without affecting
- doses at which many of the side effects are more frequent [3]: ≥ 300 mg per day
- CPK increase cases with no or only weak confounding factors [4]: 2 cases
- rhabdomyolysis cases with no or only weak confounding factors [4]: 3 cases
- time from initiation of zonisamide treatment to development of CPK increase [4]: two (2) days and six (6) weeks
- time from initiation of zonisamide treatment to development of rhabdomyolysis [4]: two (2) weeks and nine (9) years
- binding to the GABA/benzodiazepine receptor ionophore complex ([5]; allosteric fashion): binds to the GABA/benzodiazepine receptor ionophore complex
- effect on chloride flux [5]: does not produce changes in chloride flux
